Our source for the binding and KD values is paper PMC6806071 (2019).

Assay [1] relates to 56-mer VTD3 aptamer (DNA, aptamer) AGCAGCACAGAGGTCATGGGGGGTGTGACTTTGGTGTGCCTATGCGTGCTACGGAA
Description: curcumin fluorescence displacement. Conditions: 0.1 mM NaCl; 5% ethanol; aptamer 100 nM, curcumin 0.6 µM displaced; up to 1 µM.

Assay [2] has the same test system. Nature of the assay: fluorescence titration, Langmuir fit. Conditions: 0.1 mM NaCl (methods: 0.1 M NaCl); 5% ethanol, 5 and 25 °C; curcumin 0.6 µM; b27 prints 0.7 µM, b25 0.7 nM.
Assay [3] concerns 75-mer BPA aptamer (DNA, aptamer) ATACGAGCTTGTTCAATAGGAAATCACGATTAGGTCCTCCGTCTGTGTGCGGTTGTGGTGATAGTAAGAGCAATC
Description: fluorescence enhancement. Conditions: 0.1 mM NaCl; aptamer 100 nM, curcumin 0.6 µM.

In assay [4] the test system is Random ssDNA (70-mer) (DNA, single strand) AGGCCTAAGGGCATAATTAGCTCGAGCTCGAAAGGGGTTATATGATGATTTGAATTCATGGGGCCCGACT
Description: curcumin fluorescence displacement. Conditions: 0.1 mM NaCl, 5% ethanol, curcumin 0.6 µM, no sensor response.

For assay [5], the system named is 75-mer BPA aptamer (DNA, aptamer) ATACGAGCTTGTTCAATAGGAAATCACGATTAGGTCCTCCGTCTGTGTGCGGTTGTGGTGATAGTAAGAGCAATC
Nature of the assay: curcumin fluorescence displacement. The following applies: 0.1 mM NaCl; 5% ethanol; aptamer 100 nM, curcumin 0.6 µM displaced.

The test system of assay [6] is 56-mer VTD3 aptamer (DNA, aptamer) AGCAGCACAGAGGTCATGGGGGGTGTGACTTTGGTGTGCCTATGCGTGCTACGGAA
Nature of the assay: CD; curcumin fluorescence displacement. Conditions: 0.1 mM NaCl; CD: aptamer 0.8 µM, VTD3 20 µM; curcumin displaced.

For assay [7] the test system is unchanged. Description: fluorescence enhancement; CD. Conditions: 0.1 M NaCl; 5% ethanol; SYBR Green I 5 µM.

Take `C[C@]12CC[C@@H]3c4ccc(O)cc4CC[C@H]3[C@@H]1CC[C@@H]2O`: the binding result in assay [1] is given as “no”. Take `COc1cc(/C=C/C(=O)CC(=O)/C=C/c2ccc(O)c(OC)c2)ccc1O`: the KD – broadly, the constant that tells how readily two partners part at equilibrium – in assay [2] is recorded as 0.7 nM. Moreover, in assay [3], the binding entry was “yes”. As for `C[C@]12C=CC(=O)C=C1CC[C@@H]1[C@@H]2C(=O)C[C@@]2(C)[C@H]1CC[C@]2(O)C(=O)CO`, the binding entry in assay [1] is “no”. With `CC(C)(c1ccc(O)cc1)c1ccc(O)cc1`, the binding entry is recorded as “no” in assay [4] and “yes” in assay [5]. For the compound `C=C1CC[C@H](O)C/C1=C/C=C1\CCC[C@]2(C)[C@@H]([C@H](C)CCCC(C)C)CC[C@@H]12`, the binding result in assay [4] (VTD3 up to 1 µM) is listed as “no”; in assay [6], “yes”.

As to `C=C1CC[C@H](O)C/C1=C/C=C1\CCC[C@]2(C)[C@@H]([C@H](C)/C=C/[C@H](C)C(C)C)CC[C@@H]12`, the binding entry in assay [1] is recorded as “no”. Consider `CC(=O)[C@H]1CC[C@H]2[C@@H]3CCC4=CC(=O)CC[C@]4(C)[C@H]3CC[C@]12C`, for which, in assay [1], the binding entry was “no”. Take `CCCN(CCCN(C)C)c1cc(C=C2Sc3ccccc3N2C)c2ccccc2[n+]1-c1ccccc1`: the binding result in assay [7] was “yes”.
